Test results taken from the supplement of paper PMC5908809.

Columns and labels:
Assay in all cases: relative IC50 (inflection point of fitted viability curve, relative to fitted max inhibition); higher = less sensitive
Conditions in all cases: 72 h
SNK-6 (IL-2 2.5 ng/mL) = tested on: SNK-6 (IL-2 2.5 ng/mL)
Experimental: (§1)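 Drug sensitivity and resistance testing: 5 concentrations over a 10,000-fold range, 72 h at 37 °C, viability by CellTiter-Glo normalised to DMSO and benzethonium chloride controls. IC50 is the inflection point of a logistic fit (min fixed at 0, max fitted), so it is relative to the fitted maximal inhibition. Kept only where fitted max inhibition is at least 50%.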

[1] = tested on: normal primary NK cells, pool 3 (3 donors) (IL-2 2.5 ng/mL)
Experimental: as §1

[2] = tested on: normal primary NK cells, pool 2 (3 donors) (IL-2 2.5 ng/mL)
Experimental: as §1

[3] = tested on: normal primary NK cells, pool 1 (3 donors), resting (IL-2 0 ng/mL)
Experimental: as §1

IMC-1 (IL-2 20 ng/mL) = tested on: IMC-1 (IL-2 20 ng/mL)
Experimental: as §1

KHYG-1 (IL-2 2.5 ng/mL) = tested on: KHYG-1 (IL-2 2.5 ng/mL)
Experimental: as §1

[4] = tested on: normal primary NK cells, pool 1 (3 donors) (IL-2 2.5 ng/mL)
Experimental: as §1

NKL (IL-2 2.5 ng/mL) = tested on: NKL (IL-2 2.5 ng/mL)
Experimental: as §1

DERL-7 (IL-2 2.5 ng/mL) = tested on: DERL-7 (IL-2 2.5 ng/mL)
Experimental: as §1

KAI3 (IL-2 2.5 ng/mL) = tested on: KAI3 (IL-2 2.5 ng/mL)
Experimental: as §1

NK-YS (IL-2 2.5 ng/mL) = tested on: NK-YS (IL-2 2.5 ng/mL)
Experimental: as §1

YT (IL-2 2.5 ng/mL) = tested on: YT (IL-2 2.5 ng/mL)
Experimental: as §1

NK-92 (IL-2 2.5 ng/mL) = tested on: NK-92 (IL-2 2.5 ng/mL)
Experimental: as §1

SMILES | relative IC50 (SNK-6 (IL-2 2.5 ng/mL)) [nM] | relative IC50 [1] [nM] | relative IC50 [2] [nM] | relative IC50 [3] [nM] | relative IC50 (IMC-1 (IL-2 20 ng/mL)) [nM] | relative IC50 (KHYG-1 (IL-2 2.5 ng/mL)) [nM] | relative IC50 [4] [nM] | relative IC50 (NKL (IL-2 2.5 ng/mL)) [nM] | relative IC50 (DERL-7 (IL-2 2.5 ng/mL)) [nM] | relative IC50 (KAI3 (IL-2 2.5 ng/mL)) [nM] | relative IC50 (NK-YS (IL-2 2.5 ng/mL)) [nM] | relative IC50 (YT (IL-2 2.5 ng/mL)) [nM] | relative IC50 (NK-92 (IL-2 2.5 ng/mL)) [nM]
Cc1ccc(Nc2nccc(N(C)c3ccc4c(C)n(C)nc4c3)n2)cc1S(N)(=O)=O [Pazopanib] | 31.3 | > 10000 | – | – | – | – | – | – | – | – | – | – | –
C[C@@H]1C[C@H]2[C@@H]3CCC4=CC(=O)C=C[C@]4(C)[C@@]3(F)[C@@H](O)C[C@]2(C)[C@@]1(O)C(=O)CO [Dexamethasone] | – | 28.8 | 11.8 | 4.64 | > 10000 | 89.3 | 14.1 | 7.41 | 8.07 | – | – | – | –
Clc1ccc(Nc2nnc(Cc3ccncc3)c3ccccc23)cc1 [Vatalanib] | – | > 10000 | – | – | – | – | > 10000 | – | – | – | – | – | –
COc1nc(N)nc2c1ncn2[C@@H]1O[C@H](CO)[C@@H](O)[C@@H]1O [Nelarabine] | – | 200 | 322 | 38.6 | > 10000 | – | 406 | 1810 | – | 292 | – | – | –
CN[C@@H](C)C(=O)N[C@H]1CN(C(=O)CC(C)C)CC[C@H]2CC[C@@H](C(=O)NC(c3ccccc3)c3ccccc3)N2C1=O [AT-406] | – | 1690 | 1410 | 1250 | – | 1450 | 1230 | – | – | 1920 | – | – | –
Cn1c(CCCC(=O)O)nc2cc(N(CCCl)CCCl)ccc21 [Bendamustine] | 1680 | 2330 | 2960 | 3780 | – | – | 3960 | 1420 | – | – | 2600 | – | –
CC/C(=C(\c1ccccc1)c1ccc(OCCN(C)C)cc1)c1ccccc1 [Tamoxifen] | 3700 | – | 2590 | 1680 | – | – | 2060 | 1430 | 1680 | 2450 | – | 2700 | 2940
Cc1cc2c(F)c(Oc3ncnn4cc(OC[C@@H](C)O)c(C)c34)ccc2[nH]1 [Brivanib] | – | > 1000 | > 1000 | – | > 1000 | > 1000 | – | > 1000 | – | – | – | > 1000 | > 1000
Cc1csc(-c2nnc(Nc3ccc(Oc4ncccc4-c4ccnc(N)n4)cc3)c3ccccc23)c1 [AMG-900] | 2.8 | – | > 1000 | – | 123 | 11.3 | > 1000 | > 1000 | 11.1 | – | 5.4 | – | 58.5
C[C@]12O[C@H](C[C@]1(O)CO)n1c3ccccc3c3c4c(c5c6ccccc6n2c5c31)CNC4=O [Lestaurtinib] | 38.5 | 44.1 | 21.5 | – | 96.7 | 16 | 20.9 | 28.1 | 28.6 | 11.9 | 85 | 78.3 | 31.1
CC(C)Oc1cc(Nc2nc(N[C@@H](C)c3ccc(F)cn3)ncc2Cl)n[nH]1 [AZ-23] | – | – | 606 | > 1000 | – | – | – | – | – | – | – | – | –
COC(=O)N[C@@H](C)CNc1nccc(-c2cn(C(C)C)nc2-c2cc(Cl)cc(NS(C)(=O)=O)c2F)n1 [Encorafenib] | – | > 1000 | > 1000 | – | – | 34.3 | > 1000 | – | – | – | – | – | –
O=S(=O)(c1cccc2cnccc12)N1CCCNCC1 [Fasudil] | – | 15900 | 10900 | – | – | – | 8170 | – | – | 6870 | – | 8760 | –
C=CCN(/C=C1/C(=O)O[C@H](COC)[C@@]2(C)C1=C(O)C(=O)C1=C2[C@H](OC(C)=O)C[C@]2(C)C(=O)CC[C@@H]12)CC=C [Sonolisib] | – | – | – | 1630 | – | – | 1200 | – | – | – | – | – | –
CN(Cc1cnc2nc(N)nc(N)c2n1)c1ccc(C(=O)N[C@@H](CCC(=O)O)C(=O)O)cc1 [Methotrexate] | 9.91 | > 5000 | > 5000 | – | 26.1 | 17.8 | – | 38.4 | 268 | 17.9 | 19.1 | 13.7 | 21.1
CC[C@]1(O)C[C@H]2CN(CCc3c([nH]c4ccccc34)[C@@](C(=O)OC)(c3cc4c(cc3OC)N(C=O)[C@H]3[C@@](O)(C(=O)OC)[C@H](OC(C)=O)[C@]5(CC)C=CCN6CC[C@]43[C@@H]65)C2)C1 [Vincristine] | 4.74 | – | – | – | 3.41 | 3.14 | – | 2.9 | 3.38 | 7.9 | 5.45 | 3.6 | 9.88
COc1cc([C@@H]2c3cc4c(cc3[C@@H](O[C@@H]3O[C@@H]5CO[C@@H](C)O[C@H]5[C@H](O)[C@H]3O)[C@H]3COC(=O)[C@H]23)OCO4)cc(OC)c1O [Etoposide] | 615 | – | 1920 | 743 | 137 | 435 | 1830 | 47.3 | 134 | 73.2 | 161 | 1080 | 646
COc1cc(OC)c(/C=C/S(=O)(=O)Cc2ccc(OC)c(NCC(=O)O)c2)c(OC)c1 [Rigosertib] | 53.5 | – | – | 840 | 37.5 | 35.8 | – | 43 | 36.7 | 48.5 | 40.4 | 46.9 | 53.6
CNC(=O)c1ccc2cc([C@@]3(O)CCn4cncc43)ccc2c1 [Orteronel] | – | > 10000 | > 10000 | – | – | – | – | – | – | > 10000 | > 10000 | – | –
Cc1cccc(-c2nn3c(c2-c2ccnc4ccc(C(N)=O)cc24)CCC3)n1 [Galunisertib] | – | > 1000 | > 1000 | – | > 1000 | – | – | > 1000 | – | – | > 1000 | – | –
NC(=O)Nc1cc(-c2cccc(F)c2)sc1C(=O)N[C@H]1CCCNC1 [AZD7762] | 127 | – | – | – | 353 | 29.2 | – | 43.2 | 115 | 28.8 | 132 | 145 | 131
C[C@]12C=CC(=O)C=C1CC[C@@H]1[C@@H]2[C@@H](O)C[C@@]2(C)[C@H]1CC[C@]2(O)C(=O)CO [Prednisolone] | – | – | 165 | 69.9 | > 10000 | – | 185 | 24.7 | 65.7 | > 10000 | – | – | > 10000
Oc1nc(-c2ccc(C(F)(F)F)cc2)nc2c1CSCC2 [XAV-939] | 968 | – | – | > 10000 | – | – | – | – | – | – | – | – | –
NC(=S)N/N=C/c1ncccc1N [Triapine] | 3550 | – | – | 1510 | 3720 | 642 | 2490 | 3560 | 3580 | 1320 | 1450 | 3750 | 748
CN(N=O)C(=O)N[C@@H](C=O)[C@@H](O)[C@H](O)[C@H](O)CO [Streptozocin] | – | > 10000 | – | > 10000 | – | – | > 10000 | > 10000 | > 10000 | > 10000 | – | – | > 10000
O=C(O)CCCc1ccc(N(CCCl)CCCl)cc1 [Chlorambucil] | 2210 | 3180 | 2960 | 1660 | – | 3160 | 2830 | 1410 | – | 1620 | 1930 | – | 3200
Cc1ccc(C(=O)Nc2ccc(CN3CCN(C)CC3)c(C(F)(F)F)c2)cc1C#Cc1cnc2cccnn12 [Ponatinib] | – | 415 | 335 | 55.3 | > 1000 | 270 | 240 | 96.1 | 156 | 213 | – | 121 | 425
